Ki data for eight compounds are collected here from ChEMBL document CHEMBL1131265, “The de novo design and synthesis of cyclic urea inhibitors of factor Xa: initial SAR studies” (Bioorg Med Chem Lett, 1998).

For assay [1], the target named is T1, Serine protease 1 (Homo sapiens, UniProt P07477). The assay is described as follows: Compound was tested for inhibition of trypsin.
For assay [2], the target named is T1, Serine protease 1. The assay is described as follows: Compound was tested for inhibition of trypsin.
Assay [3] has as its target Coagulation factor X (Homo sapiens, UniProt P00742). The assay is described as follows: Compound was tested for inhibition of blood coagulation factor X.
In assay [4] the target is Prothrombin (Homo sapiens, UniProt P00734). The assay is described as follows: Compound was tested for inhibition of thrombin. Details: species or system Oryctolagus cuniculus.

Chain of Coagulation factor X (P00742 41-179 limits assumed): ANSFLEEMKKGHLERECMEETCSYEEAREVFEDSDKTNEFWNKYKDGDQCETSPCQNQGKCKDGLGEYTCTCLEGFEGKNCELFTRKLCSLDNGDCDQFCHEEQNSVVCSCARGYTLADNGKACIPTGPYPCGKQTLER
Chain of Coagulation factor X (P00742 235-488 limits assumed): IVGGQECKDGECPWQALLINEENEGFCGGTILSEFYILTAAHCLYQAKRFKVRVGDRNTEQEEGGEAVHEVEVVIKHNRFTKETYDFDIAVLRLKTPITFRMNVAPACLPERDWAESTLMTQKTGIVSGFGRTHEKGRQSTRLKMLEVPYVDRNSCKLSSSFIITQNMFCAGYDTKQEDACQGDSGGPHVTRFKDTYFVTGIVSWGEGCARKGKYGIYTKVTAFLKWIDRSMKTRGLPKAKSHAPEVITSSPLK
T1 sequence (P07477 whole entry): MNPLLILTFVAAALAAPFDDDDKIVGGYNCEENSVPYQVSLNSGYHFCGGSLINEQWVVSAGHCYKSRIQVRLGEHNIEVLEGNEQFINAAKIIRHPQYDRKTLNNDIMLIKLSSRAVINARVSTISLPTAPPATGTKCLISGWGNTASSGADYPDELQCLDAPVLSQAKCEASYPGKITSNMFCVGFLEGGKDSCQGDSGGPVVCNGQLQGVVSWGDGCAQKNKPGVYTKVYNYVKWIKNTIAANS

`CC(=N)N1CC[C@H](Oc2ccc(C(Cc3ccc4ccc(C(=N)N)cc4c3)C(=O)O)cc2)C1` (some centres undefined): the affinity in assay [1], expressed as Ki, was 1100 nM.

In the case of `N=C(N)c1cccc(NC(=O)NC2CCN(Cc3ccccc3)CC2)c1`, the results for the inhibition constant Ki in assay [2], in assay [3] and in assay [4] were over 1200 nM, 4900 nM and over 21000 nM, respectively.

Consider `N=C(N)c1cccc(N2CCCCN(C3CCN(C(=N)N)CC3)C2=O)c1`, for which the values for the Ki in assay [3] and in assay [4] were 2500 nM and over 21000 nM, respectively.

Consider `N=C(N)c1cccc(N2CCCN(C3CCN(Cc4ccccc4)CC3)C2=O)c1`, for which the values for the Ki in assay [3] and in assay [4] were 400 nM and 7300 nM, respectively.

On to `N=C(N)c1cccc(N2CCN(C3CCN(Cc4ccccc4)CC3)C2=O)c1`, for which the Ki is 2100 nM in assay [3] and 11000 nM in assay [4].

`N=C(N)c1cccc(N2CCCCN(C3CCN(Cc4ccccc4)CC3)C2=O)c1`: the inhibitory constant (Ki) came to 282 nM in assay [2], 102 nM in assay [3] and 2000 nM in assay [4].

Consider `N=C(N)c1ccc(N2CCCCN(c3cccc(C(=N)N)c3)C2=O)cc1`, for which the Ki in assay [2] was 120 nM; in assay [3], 800 nM; in assay [4], 9300 nM.

`N=C(N)c1ccc(N2CCCCN(C3CCN(Cc4ccccc4)CC3)C2=O)cc1`: the Ki in assay [2] is over 1600 nM; in assay [3], 7500 nM; in assay [4], over 21000 nM.
